{"source": "ChEMBL document CHEMBL4665751", "about": "“Discovery of Clinical Candidate (5-(3-(4-Chlorophenoxy)prop-1-yn-1-yl)-3-hydroxypicolinoyl)glycine, an Orally Bioavailable Prolyl Hydroxylase Inhibitor for the Treatment of Anemia” (J Med Chem, 2020)", "key": {"[1]": {"experiment": "Acute toxicity in male Sprague-Dawley rat assessed as change in ratio of epididymis to body weight at 15 to 200 mg/kg, po administered every alternate days for 2 weeks measured on day 14", "assay_type": "organism-based", "settings": "in vivo, 336 h, dose 15-200 mg/kg, time 14 day"}, "[2]": {"experiment": "MRT (0 to infinity) in Sprague-Dawley rat at 2 mg/kg, ig by LC-MS/MS analysis", "assay_type": "ADME, organism-based", "settings": "in vivo, po"}, "[3]": {"experiment": "Nephrotoxicity in male Sprague-Dawley rat assessed as effect on total protein level in blood at 15 to 200 mg/kg, iv or po administered every alternate days for 2 weeks measured on day 14", "assay_type": "toxicity, organism-based", "settings": "in vivo, 336 h, dose 15-200 mg/kg, time 14 day"}, "[4]": {"target": "T1, Egl nine homolog 1 (Homo sapiens, UniProt Q9GZT9)", "T1 sequence (Q9GZT9 2-426 limits assumed)": "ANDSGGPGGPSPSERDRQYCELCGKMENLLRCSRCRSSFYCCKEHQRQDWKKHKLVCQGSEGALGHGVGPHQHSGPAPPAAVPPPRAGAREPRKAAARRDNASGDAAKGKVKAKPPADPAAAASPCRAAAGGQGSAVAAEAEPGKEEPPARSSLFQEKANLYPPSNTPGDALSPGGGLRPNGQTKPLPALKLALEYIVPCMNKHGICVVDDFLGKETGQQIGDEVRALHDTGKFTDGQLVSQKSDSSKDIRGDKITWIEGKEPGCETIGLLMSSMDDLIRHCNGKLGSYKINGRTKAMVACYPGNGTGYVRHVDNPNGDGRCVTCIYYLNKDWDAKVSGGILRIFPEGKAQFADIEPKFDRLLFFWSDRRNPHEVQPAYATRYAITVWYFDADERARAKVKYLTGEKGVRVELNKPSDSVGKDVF", "experiment": "Inhibition of PHD2 in human MCF7 cells assessed as upregulation of HIFalpha expression at 25 uM incubated for 24 hrs by firefly/renilla luciferase reporter gene assay relative to control", "assay_type": "cell-based"}, "[5]": {"species": "Homo sapiens", "experiment": "Selectivity index, ratio of IC50 for human ERG expressed in HEK293 cells by PatchLiner assay to IC50 for PHD2 (unknown origin) by O-phenyl enediamine(OPD) based fluorescence assay", "assay_type": "cell-based"}, "[6]": {"experiment": "Acute toxicity in Sprague-Dawley rat assessed as change in growth at 15 to 200 mg/kg, po administered every alternate days for 14 days", "assay_type": "organism-based", "settings": "in vivo, 336 h, dose 15-200 mg/kg, time 14 day"}, "[7]": {"experiment": "Acute toxicity in Sprague-Dawley rat assessed as change in ratio of liver to body weight at 15 to 200 mg/kg, po administered every alternate days for 2 weeks measured on day 14", "assay_type": "organism-based", "settings": "in vivo, 336 h, dose 15-200 mg/kg, time 14 day"}, "[8]": {"experiment": "Acute toxicity in Sprague-Dawley rat assessed as effect on food intake at 15 to 200 mg/kg, po administered every alternate day for 14 day", "assay_type": "organism-based", "settings": "in vivo, 336 h, dose 15-200 mg/kg"}, "[9]": {"target": "T1, Egl nine homolog 1", "experiment": "Inhibition of PHD2 in human Hep3B cells assessed as upregulation of EPO mRNA expression at 50 uM measured after 10 hrs by Trizol reagent based qRT-PCR analysis relative to control", "assay_type": "cell-based"}, "[10]": {"experiment": "Half-life in mouse hepatocytes at 100 uM incubated up to 120 mins by LC-MS/MS analysis", "assay_type": "ADME, cell-based, Hepatocyte"}, "[11]": {"system": "Mus musculus", "experiment": "Antianemic activity in cisplatin-induced C57BL/6 mouse anemia model assessed as improvement in anemia at 10 mg/kg, po administered every other day for 1 month", "assay_type": "functional", "settings": "time 1 months, 730 h"}, "[12]": {"target": "Cytochrome P450 3A4 (Homo sapiens, UniProt P08684)", "sequence (P08684 whole entry)": "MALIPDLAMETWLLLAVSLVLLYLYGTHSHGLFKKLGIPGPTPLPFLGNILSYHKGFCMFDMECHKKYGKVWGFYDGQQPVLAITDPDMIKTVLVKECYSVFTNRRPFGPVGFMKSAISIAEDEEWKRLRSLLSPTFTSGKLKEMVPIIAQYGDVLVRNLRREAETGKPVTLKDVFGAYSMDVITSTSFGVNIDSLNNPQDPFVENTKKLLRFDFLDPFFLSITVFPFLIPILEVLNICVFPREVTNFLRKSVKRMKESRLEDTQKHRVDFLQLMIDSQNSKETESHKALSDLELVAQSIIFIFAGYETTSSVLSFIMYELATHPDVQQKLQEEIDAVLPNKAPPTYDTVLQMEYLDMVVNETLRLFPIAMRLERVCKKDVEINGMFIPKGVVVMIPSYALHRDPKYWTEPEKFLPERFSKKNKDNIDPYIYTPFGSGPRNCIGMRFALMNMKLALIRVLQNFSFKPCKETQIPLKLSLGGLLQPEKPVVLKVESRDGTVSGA", "experiment": "Inhibition of CYP3A4 (unknown origin) using midazolam as substrate preincubated for 5 mins followed by addition of NADPH measured after 20 mins by LC-MS/MS analysis", "assay_type": "ADME"}, "[13]": {"target": "T2, Cytochrome P450 1A2 (Homo sapiens, UniProt P05177)", "T2 sequence (P05177 whole entry)": "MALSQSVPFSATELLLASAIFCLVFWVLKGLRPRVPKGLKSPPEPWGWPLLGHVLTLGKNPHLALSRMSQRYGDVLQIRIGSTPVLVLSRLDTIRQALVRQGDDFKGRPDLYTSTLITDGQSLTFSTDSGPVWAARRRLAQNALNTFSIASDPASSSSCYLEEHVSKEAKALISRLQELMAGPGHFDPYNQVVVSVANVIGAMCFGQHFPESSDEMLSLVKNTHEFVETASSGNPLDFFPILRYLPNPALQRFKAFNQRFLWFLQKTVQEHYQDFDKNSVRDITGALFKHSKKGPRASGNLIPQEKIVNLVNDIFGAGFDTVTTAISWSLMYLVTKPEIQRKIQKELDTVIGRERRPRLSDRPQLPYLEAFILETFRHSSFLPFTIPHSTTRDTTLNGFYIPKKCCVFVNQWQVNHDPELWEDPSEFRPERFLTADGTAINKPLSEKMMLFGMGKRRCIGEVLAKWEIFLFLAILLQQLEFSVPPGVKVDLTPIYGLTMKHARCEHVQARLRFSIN", "experiment": "Inhibition of CYP1A2 (unknown origin) using phenacetin as substrate preincubated for 5 mins followed by addition of NADPH measured after 20 mins by LC-MS/MS analysis", "assay_type": "ADME"}, "[14]": {"experiment": "Half-life in rat hepatocytes at 100 uM incubated up to 120 mins by LC-MS/MS analysis", "assay_type": "ADME, cell-based, Hepatocyte"}, "[15]": {"experiment": "Intrinsic clearance in monkey liver microsome at 1 uM preincubated for 5 mins followed by NADPH addition measured up to 120 mins by LC-MS/MS analysis", "assay_type": "ADME, Macaca mulatta", "settings": "rhesus monkey, microsomes, 2 h, time <=125 min"}, "[16]": {"experiment": "Acute toxicity in male Sprague-Dawley rat assessed as change in ratio of testis to body weight at 15 to 200 mg/kg, po administered every alternate days for 2 weeks measured on day 14", "assay_type": "organism-based", "settings": "in vivo, 336 h, dose 15-200 mg/kg, time 14 day"}, "[17]": {"experiment": "Hepatotoxicity in male Sprague-Dawley rat assessed as change in alanine aminotransferase level in blood at 15 to 200 mg/kg, po administered every alternate days for 2 weeks measured on day 14", "assay_type": "toxicity, organism-based", "settings": "in vivo, 336 h, dose 15-200 mg/kg, time 14 day"}, "[18]": {"experiment": "Hepatotoxicity in male Sprague-Dawley rat assessed as change in aspartate aminotransferase level in blood at 200 mg/kg, po administered every alternate days for 2 weeks measured on day 14", "assay_type": "toxicity, organism-based", "settings": "in vivo, 336 h, time 14 day"}, "[19]": {"experiment": "Half-life in Sprague-Dawley rat at 2 mg/kg, ig by LC-MS/MS analysis", "assay_type": "ADME, organism-based", "settings": "in vivo, po"}, "[20]": {"experiment": "Genotoxicity in Salmonella typhimurium TA98 at 62.5 to 1000 ug incubated for 48 to 50 hrs in presence of S9 fraction by Ames test", "assay_type": "toxicity, subcellular, Salmonella enterica subsp. enterica serovar Typhimurium", "settings": "dose 62.5-1000 µg, time 48-50 hrs"}, "[21]": {"experiment": "Half-life in Sprague-Dawley rat at 1 mg/kg, iv by LC-MS/MS analysis", "assay_type": "ADME, organism-based", "settings": "in vivo"}, "[22]": {"experiment": "Half-life in Beagle dog at 2 mg/kg, ig by LC-MS/MS analysis", "assay_type": "ADME, organism-based, Canis lupus familiaris", "settings": "in vivo, po"}, "[23]": {"experiment": "AUC (0 to t) in Sprague-Dawley rat at 2 mg/kg, ig by LC-MS/MS analysis", "assay_type": "ADME, organism-based", "set-up": "dose 2 mg/kg", "settings": "in vivo, po"}, "[24]": {"target": "Cytochrome P450 2D6 (Homo sapiens, UniProt P10635)", "sequence (P10635 whole entry)": "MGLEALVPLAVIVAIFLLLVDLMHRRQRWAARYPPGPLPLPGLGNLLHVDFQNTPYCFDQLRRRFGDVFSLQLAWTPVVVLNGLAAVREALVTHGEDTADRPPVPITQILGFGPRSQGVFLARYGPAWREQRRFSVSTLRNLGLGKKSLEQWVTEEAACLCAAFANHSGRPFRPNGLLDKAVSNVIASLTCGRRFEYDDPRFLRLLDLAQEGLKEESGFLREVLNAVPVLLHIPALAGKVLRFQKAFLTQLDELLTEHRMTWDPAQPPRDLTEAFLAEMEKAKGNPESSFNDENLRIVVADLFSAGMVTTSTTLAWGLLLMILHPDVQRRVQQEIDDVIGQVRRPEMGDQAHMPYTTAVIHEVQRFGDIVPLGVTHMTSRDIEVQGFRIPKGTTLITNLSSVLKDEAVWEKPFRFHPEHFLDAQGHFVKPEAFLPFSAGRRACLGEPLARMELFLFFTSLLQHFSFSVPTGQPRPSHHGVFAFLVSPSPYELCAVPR", "experiment": "Inhibition of CYP2D6 (unknown origin) using dextromethorphan as substrate preincubated for 5 mins followed by addition of NADPH measured after 20 mins by LC-MS/MS analysis", "assay_type": "ADME"}, "[25]": {"experiment": "Cmax in Beagle dog at 2 mg/kg, ig by LC-MS/MS analysis", "assay_type": "ADME, organism-based, Canis lupus familiaris", "set-up": "route […], dose 2 mg/kg", "settings": "in vivo, po"}, "[26]": {"experiment": "AUC (0 to infinity) in Beagle dog at 0.5 mg/kg, iv by LC-MS/MS analysis", "assay_type": "ADME, organism-based, Canis lupus familiaris", "set-up": "time infinity, route intravenous, dose 0.5 mg/kg", "settings": "in vivo"}, "[27]": {"species": "Homo sapiens", "experiment": "Selectivity index, ratio of IC50 for PHD3 (unknown origin) to IC50 for PHD2 (unknown origin) by O-phenyl enediamine(OPD) based fluorescence assay"}, "[28]": {"system": "Mus musculus", "experiment": "In vivo inhibition of PHD2 in C57BL/6 mouse assessed as upregulation of EPO plasma level by measuring EPO level at 15 mg/kg, po measured after 4 hrs by ELISA", "assay_type": "functional, organism-based"}, "[29]": {"experiment": "Acute toxicity in male Sprague-Dawley rat assessed as increase in weight of spleen to body weight at 15 to 200 mg/kg, po administered every alternate days for 2 weeks measured on day 14", "assay_type": "organism-based", "settings": "in vivo, 336 h, dose 15-200 mg/kg, time 14 day"}, "[30]": {"system": "Hep 3B2", "experiment": "Cytotoxicity against human Hep3B cells assessed as reduction in cell viability at 10 to 100 uM incubated for 72 hrs by MTT assay", "assay_type": "cell-based", "settings": "hep 3b2, 72 h, dose 10-100 µM"}}, "note": "Activity calls are given as the source filed them. No cut-off for these calls is given here."}
{"smiles": "O=C(O)CNC(=O)c1ncc(C#CCOc2ccc(Cl)cc2)cc1O", "note": "[DDO-3055]", "values": [{"measurement": "Activity", "setting": "[1]", "value": "Non-Toxic"}, {"measurement": "MRT inf", "setting": "[2]", "value": 9.43, "unit": "h"}, {"measurement": "Activity", "setting": "[3]", "value": "Non-Toxic"}, {"measurement": "fold change (FC)", "setting": "[4]", "value": 4}, {"measurement": "Ratio IC50", "setting": "[5]", "value": "> 467"}, {"measurement": "Activity", "setting": "[6]", "value": "Non-Toxic"}, {"measurement": "Activity", "setting": "[7]", "value": "Non-Toxic"}, {"measurement": "Activity", "setting": "[8]", "value": "Non-Toxic"}, {"measurement": "fold change (FC)", "setting": "[9]", "value": 7}, {"measurement": "half-life at 100 µM", "setting": "[10]", "value": 8.68, "unit": "min"}, {"measurement": "Activity", "setting": "[11]", "value": 83.3, "unit": "%"}, {"measurement": "IC50", "setting": "[12]", "value": "> 30", "unit": "µM"}, {"measurement": "IC50", "setting": "[13]", "value": "> 30", "unit": "µM"}, {"measurement": "half-life at 100 µM", "setting": "[14]", "value": 32.3, "unit": "min"}, {"measurement": "CLH", "setting": "[15]", "value": "< 13", "unit": "µL/min/kg"}, {"measurement": "Activity", "setting": "[16]", "value": "Non-Toxic"}, {"measurement": "Activity", "setting": "[17]", "value": "Non-Toxic"}, {"measurement": "Activity", "setting": "[18]", "value": "Toxic"}, {"measurement": "half-life", "setting": "[19]", "value": 386, "unit": "min"}, {"measurement": "Activity", "setting": "[20]", "value": "Non-Toxic"}, {"measurement": "half-life", "setting": "[21]", "value": 506, "unit": "min"}, {"measurement": "half-life", "setting": "[22]", "value": 251, "unit": "min"}, {"measurement": "AUC(0-t)", "setting": "[23]", "value": 4800, "unit": "ng·h/mL"}, {"measurement": "IC50", "setting": "[24]", "value": "> 30", "unit": "µM"}, {"measurement": "Cmax", "setting": "[25]", "value": 735, "unit": "ng/mL"}, {"measurement": "AUC(0-inf)", "setting": "[26]", "value": 636, "unit": "ng·h/mL"}, {"measurement": "Ratio IC50", "setting": "[27]", "value": 2.6}, {"measurement": "inhibition", "setting": "[28]", "value": "Active"}, {"measurement": "Activity", "setting": "[29]", "value": "Toxic"}, {"measurement": "Activity", "setting": "[30]", "value": "Non-Toxic"}]}
